In patent publication US20140193871A1, “METHOD FOR ENHANCING CARBON BIOFIXATION” (Industrial Technology Research Institute, priority 2013, published 2014):

Key:
[1] = tested on: Clostridium ljungdahlii BCRC 17797; assay: Growth (OD600) of Clostridium ljungdahlii under CO2/H2 gas mixture; assay type: cell-based; settings: for OD600 value: t=144 hours, 2.5 g/L sodium lactate or 1.52 g/L NaCl in mPETC, 80% H2/20% CO2, 37° C.
Description: (§1) Clostridium ljungdahlii was first cultured anaerobically with mPETC medium containing 10 g/L of fructose at 37° C. in one of the air-tight bottles mentioned above. When OD600 reached a value ranging from 1 to 1.5, the culture medium was centrifuged at 3500 rpm for 210 seconds. The resulting cell pellet was resuspended with mPETC without fructose and then further cultured anaerobically at 37° C. for one hour to remove any residual sugar substrates.
(§2) 45 ml of mPETC culture medium was added to one of the crimp-top serum bottles mentioned above, which was then covered with an aluminum foil and autoclaved for 15 minutes at 121° C., 15 psi. After cooling, the medium-containing bottle was moved into an anaerobic chamber, and 50 μl of cysteine-HCl (50% w/v) was added to the medium to remove any dissolved oxygen.
(§3) For an experimental group, sodium lactate solution was further added to the culture medium to obtain a lactate concentration of 2.5 g/L (about 0.022 M).
(§4) For a sodium ion control group, NaCl solution was added to the culture medium to obtain a NaCl concentration of 1.52 g/L (about 0.026 M). This control group was designed to test whether the sodium ions present in the sodium lactate play any role in carbon dioxide fixation. Thus, the same molar amount of sodium ion as the experimental group was added.
(§5) Each of the serum bottles containing 45 ml of mPETC culture medium was then inoculated with 5 ml of Clostridium ljungdahlii culture that had residual sugar removed. A sample taken at this point was labeled as t=0 sample. The bottles were then sealed with rubber stoppers and further covered with aluminum crimp caps to ensure an air-tight closure.
The headspaces of the air-tight bottles were first purged with a gas mixture containing 80% N2 and 20% of CO2 under a pressure of 10 psi. Needles were inserted into the rubber stops to allow the gas to escape from the bottles. […]
Syringes with needles were used to collect liquid samples. […] The supernatant was analyzed with an Agilent 1100 series high-performance liquid chromatography (HPLC) with Aminex HPX-87 H (300 mm×7.8 mm) column.

[2] = tested on: Clostridium ljungdahlii BCRC 17797; assay: HPLC analysis of culture medium: acetic acid produced and lactic acid consumed during CO2 fermentation; assay type: cell-based; settings: for carbon atoms contained in acetic acid produced / Acetic Acid ΔC (Ct=144 h − Ct=0), acetic acid produced: 144 hours of culture; for Acetic Acid ΔC (Ct=144 h − Ct=0), acetic acid produced / Acetic Acid Ct=0 h / Acetic Acid Ct=144 h: 2.5 g/L sodium lactate or 1.52 g/L sodium chloride in mPETC; for Acetic Acid Ct=0 h: t=0; for Acetic Acid Ct=144 h: t=144 hours; for Acetate production: after 96 hours of culture
Description: as §1, §2, §3, §4, §5
The headspaces of the air-tight bottles were first purged with a gas mixture containing 80% N2 and 20% of CO2 under a pressure of 10 psi. Needles were inserted into the rubber stops to allow the gas to escape from the bottles. After about 30 seconds of exposure to the gas mixture, an anaerobic condition filled with CO2 was obtained within the bottles.
Using needles, the headspaces of the bottles were then further purged with another gas mixture containing 80% H2 and 20% of CO2 under a pressure of 20 psi to replace the previous gas mixture. After about 30 seconds, needles were removed and the pressure within the bottles was built up to about 20 psi. The bottles were then moved to a 37° C. incubator and placed on a shaker providing a shaking speed of 100 rpm.
Every 12 hours, a needle was used to release the gas built up within the bottle, and the headspace of the bottle was purged and refreshed under the same process as described above to replenish gaseous carbon source under a stabilized pressure.
(§6) Syringes with needles were used to collect liquid samples. After measuring the OD600, the liquid samples were centrifuged at 12,000 rpm for 10 minutes. The resulting cell pellet was stored in 700 μl TRIzol solution for later RNA extraction and gene expression analysis. The supernatant was analyzed with an Agilent 1100 series high-performance liquid chromatography (HPLC) with Aminex HPX-87 H (300 mm×7.8 mm) column.
The experimental protocol as described in Example 1 was repeated, except that, besides having a no-additive control group, two experimental groups were prepared, one had 1 g/L of lactate in the culture medium and the other had 2.5 g/L of lactate in the culture medium.

[3] = tested on: lactate permease and genes involved in the Wood-Ljungdahl pathway; assay: RT-qPCR expression of lactate permease and Wood-Ljungdahl pathway genes; assay type: cell-based, Clostridium ljungdahlii; settings: 2.5 g/L sodium lactate; relative to no-additive control group (FIG. 3)
Description: as §6
Real-time quantitative polymerase chain reaction (RT-qPCR) was used to quantify the expression of certain genes listed in Table 2.

SMILES | OD600 value [1] | carbon atoms contained in acetic acid produced [2] | Acetic Acid ΔC (Ct=144 h − Ct=0), acetic acid produced [2] | Acetic Acid ΔC (Ct=144 h − Ct=0), acetic acid produced ([2]; listed as sodium-ion control group) | Acetic Acid Ct=0 h [2] | Acetic Acid Ct=144 h [2] | difference in growth rates between groups ([1]; experimental, sodium ion control and no-additive control groups, up to 144 hours) | Acetate production ([2]; 1 g/L lactate in medium) | Acetate production ([2]; 2.5 g/L lactate in medium) | amount of CO2 converted (fixed) to acetic acid, higher than control group ([2]; 144 hours, 0.191 M versus 0.166 M of control group) | carbon atoms that came from CO2 in the gas mixture (CO2 fixed to acetic acid) ([2]; 144 hours, 2.5 g/L sodium lactate, 0.213 M minus 0.022 M) | fold increase of CooS1 [3] | fold increase of lactate permease [3] | fold increase of metF [3]
[Cl-].[Na+] [sodium chloride, reference compound] | 0.82 | about 0.166 M | 4.91 g/L | about 4.97 g/L | 0.06 ± 0.00 g/L | 4.97 ± 0.82 g/L | – | – | – | – | – | – | – | –
CC(O)C(=O)O (stereo not shown) [sodium lactate] | 0.71 | about 0.213 M | 6.39 g/L | – | 0.06 ± 0.00 g/L | 6.45 ± 0.43 g/L | no significant difference | 8.13 ± 1.59 g/L | 9.15 ± 0.06 g/L | at least 15% | at least 0.191 M | ~3 fold | ~11 fold | ~4 fold
